How the values were obtained:
glucosidase I = molecular target: T1, glucosidase I (Homo sapiens, UniProt Q13724); details: cited from earlier work
T1 sequence (Q13724 1-837): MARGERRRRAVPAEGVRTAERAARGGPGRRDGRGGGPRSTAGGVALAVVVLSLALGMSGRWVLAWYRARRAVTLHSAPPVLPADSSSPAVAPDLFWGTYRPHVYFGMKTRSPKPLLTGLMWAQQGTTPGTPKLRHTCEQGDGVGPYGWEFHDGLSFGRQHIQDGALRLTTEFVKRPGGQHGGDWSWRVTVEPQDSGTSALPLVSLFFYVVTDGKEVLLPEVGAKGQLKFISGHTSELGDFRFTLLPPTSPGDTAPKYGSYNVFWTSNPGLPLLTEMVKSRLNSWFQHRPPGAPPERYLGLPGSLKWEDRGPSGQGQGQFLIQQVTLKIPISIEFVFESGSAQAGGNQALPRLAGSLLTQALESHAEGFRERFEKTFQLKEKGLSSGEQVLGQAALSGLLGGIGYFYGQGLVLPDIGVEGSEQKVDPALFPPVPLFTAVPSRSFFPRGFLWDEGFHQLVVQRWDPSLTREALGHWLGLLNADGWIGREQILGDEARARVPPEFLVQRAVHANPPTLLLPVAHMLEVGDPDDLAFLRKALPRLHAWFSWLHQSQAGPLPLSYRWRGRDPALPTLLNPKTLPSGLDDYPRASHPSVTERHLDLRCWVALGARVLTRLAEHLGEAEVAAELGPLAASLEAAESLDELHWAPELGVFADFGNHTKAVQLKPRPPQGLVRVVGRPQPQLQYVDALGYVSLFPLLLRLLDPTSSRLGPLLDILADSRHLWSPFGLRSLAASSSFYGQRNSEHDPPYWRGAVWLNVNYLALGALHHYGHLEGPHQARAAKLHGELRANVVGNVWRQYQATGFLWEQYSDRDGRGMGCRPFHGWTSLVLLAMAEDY

oligosaccharide addition = details: cited from earlier work
[1] = tested on: woodchuck hepatitis virus (WHV); details: previous study (ref. 11); cited from earlier work
[2] = tested on: HLA-A2 expressing T2 target cells; assay: interferon-γ ELISpot: peptide-primed CTLs against peptide-pulsed T2 cells; format: cell-based, human; details: PBMCs of healthy HLA-A2 donors stimulated in vitro with peptide; FIG. 2A
Method: Heparinized blood from healthy HLA-A2 donors was purchased from Research Blood Components, LLC, (Brighton, Mass.). Peripheral blood mononuclear cells were purified and cultured as described (13, 21). After initial stimulation with synthetic peptide, T cells were re-stimulated with CD4/CD8 T cell depleted autologous monocytes pulsed with synthetic peptide at 10 μg/ml for 5 days. IL-2 treatment and in vitro re-stimulation were repeated thrice prior to use of in vitro expanded T cells in ELISpot assays.
In vitro expanded CTLs were used as effectors in ELISpot assays to assess antigen stimulated interferon-γ release according to the manufacturer's instructions (BD-Pharmingen, San Jose, Calif.). Target cells were HepG2 human hepatoma cells (HBV negative; American Type Culture Collection) or HBV-containing HepG2.2.15 cells (22). […]
Peptides presented on the surface of a cell in the context of the MHC class I complex should be recognized with high sensitivity upon incubation with cognate peptide-primed CTLs, with specific killing of the target cells. […] Target cell recognition was quantified by interferon-γ ELISpot assay.
The ability of in vitro generated CTLs to recognize and secrete interferon-γ was evaluated by ELISpot assay. […] The P value was calculated from a Student's t-Test analysis of experimental results.

For `O[C@H]1[C@H](O)[C@@H](O)CN2CC[C@H](O)[C@H]12` [Castanospermine], the “potency as inhibitor of glucosidase I relative to deoxynojirimycin” value (glucosidase I) is given as “more potent inhibitors of glucosidase I than deoxynojirimycin” and the “prevention of oligosaccharide addition” value (oligosaccharide addition) is given as “does not”.
In the case of `CCCCCCCCCN1C[C@H](O)[C@@H](O)[C@H](O)[C@H]1CO` [N-nonyl deoxynojirimycin], the “antiviral activity in woodchucks” value [1] is given as “antiviral activity had previously been observed”.
For `OC[C@H]1NC[C@H](O)[C@@H](O)[C@@H]1O` [deoxynojirimycin], the “prevention of oligosaccharide addition” value (oligosaccharide addition) is given as “prevents oligosaccharide addition some fraction of the time”.
For “KPSDGDCTC [D-peptide, de-N-glycosylated 'D' substituted HBs peptide]”, the “elicitation of specific CTLs that recognize T2 target cells” value [2] was “effective elicitors of specific CTLs”.
With KPSDGNCTC [N-peptide] the “elicitation of specific CTLs that recognize T2 target cells” value [2] was “effective elicitors of specific CTLs”.

— US20160051665A1, “INDUCTION OF IMMUNE RESPONSE” (priority 2010, published 2016)
